# Assay results reported in patent publication US10716827B2 (priority 2015, dated 2020).
# Molecular target: GLP-1R (Homo sapiens, UniProt P43220)
# Sequence (P43220 24-463, species assumed): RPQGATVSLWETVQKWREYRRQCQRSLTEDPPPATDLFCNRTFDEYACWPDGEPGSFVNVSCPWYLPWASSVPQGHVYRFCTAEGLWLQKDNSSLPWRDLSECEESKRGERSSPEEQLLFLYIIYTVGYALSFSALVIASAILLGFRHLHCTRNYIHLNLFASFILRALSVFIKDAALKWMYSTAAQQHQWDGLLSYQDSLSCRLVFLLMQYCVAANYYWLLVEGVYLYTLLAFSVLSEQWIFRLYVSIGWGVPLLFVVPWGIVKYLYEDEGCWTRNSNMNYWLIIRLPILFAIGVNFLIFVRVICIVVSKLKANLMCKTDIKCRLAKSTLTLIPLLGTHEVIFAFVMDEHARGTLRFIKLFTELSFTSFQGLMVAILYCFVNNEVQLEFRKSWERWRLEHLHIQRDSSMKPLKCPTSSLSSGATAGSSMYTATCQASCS
substance,measurement,setting,value
HGEGTFTSDLS(Kazido)QMEEEAVRLFIENWLKNGGPSSGAPSSGAPPPS [compound 1],% Change in FRET at 100 nM,"100 nM, undigested",−12 ± 0.01%
same,potency compared to unmodified Ex-4,azido modification at K12,no significant reduction in potency
